Assay results published in US9174932B2, “CaSR agonists” (AJINOMOTO CO., INC., priority 2008, dated 2015).

Target: T1, human CaSR (Homo sapiens, UniProt P41180, E1011Q)
T1 construct: expressed in transfected cells; host or cells: 293E cells (HEK293 expressing EBNA1, ATCC CRL-10852), transient transfection of hCaSR/pcDNA3.1
T1 sequence (P41180 20-1078 E1011Q): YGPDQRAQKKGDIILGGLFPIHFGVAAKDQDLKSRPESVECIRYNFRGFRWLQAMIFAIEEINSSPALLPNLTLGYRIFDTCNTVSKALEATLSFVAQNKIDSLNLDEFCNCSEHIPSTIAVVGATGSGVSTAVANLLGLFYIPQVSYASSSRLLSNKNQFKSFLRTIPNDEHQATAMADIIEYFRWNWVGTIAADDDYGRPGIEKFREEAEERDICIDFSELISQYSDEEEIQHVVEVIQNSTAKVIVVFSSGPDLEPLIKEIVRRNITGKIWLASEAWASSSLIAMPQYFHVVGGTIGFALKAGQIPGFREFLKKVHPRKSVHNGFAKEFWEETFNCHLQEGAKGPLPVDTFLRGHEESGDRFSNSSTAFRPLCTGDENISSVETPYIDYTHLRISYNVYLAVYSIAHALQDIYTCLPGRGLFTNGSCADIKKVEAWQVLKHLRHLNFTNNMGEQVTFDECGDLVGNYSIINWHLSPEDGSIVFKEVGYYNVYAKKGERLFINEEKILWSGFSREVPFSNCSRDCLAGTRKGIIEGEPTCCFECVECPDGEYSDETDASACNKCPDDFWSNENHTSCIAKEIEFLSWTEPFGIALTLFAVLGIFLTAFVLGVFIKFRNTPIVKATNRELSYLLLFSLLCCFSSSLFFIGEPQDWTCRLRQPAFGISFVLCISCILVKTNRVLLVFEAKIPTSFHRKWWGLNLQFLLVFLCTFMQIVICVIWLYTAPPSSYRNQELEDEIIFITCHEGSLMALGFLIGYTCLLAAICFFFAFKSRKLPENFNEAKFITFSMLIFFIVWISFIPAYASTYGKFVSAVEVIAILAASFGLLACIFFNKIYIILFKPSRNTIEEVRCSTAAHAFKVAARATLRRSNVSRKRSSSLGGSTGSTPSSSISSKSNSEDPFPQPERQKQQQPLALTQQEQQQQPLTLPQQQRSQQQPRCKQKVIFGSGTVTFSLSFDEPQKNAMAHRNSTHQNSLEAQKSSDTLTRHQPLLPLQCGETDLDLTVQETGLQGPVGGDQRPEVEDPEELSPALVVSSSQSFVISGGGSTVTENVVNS
Assay: Evaluation of CaSR agonistic activity (293E cells transfected with hCaSR, Ca2+ fluorescent indicator, FLIPR)
Assay type: cell-based
Details: 293E cells expressing human CaSR; concentration giving activation rate 50%
Procedure: 293E cells (HEK293 cell expressing EBNA1, ATCC No. CRL-10852) were cultured in DMEM containing 10% fetal bovine serum (Dulbecco's modified Eagle medium containing […] Glucose, by NACALAI TESQUE, INC.), in the presence of 250 μg/mL of G418. The cells were spread on a petri dish of 10 cm diameter in 1.8×10^6 cells/15 mL. After leaving them in the CO2 incubator (5% CO2, 37° C.) for 24 hours, plasmid expressing human CaSR: hCaSR/pcDNA3.1 was transfected with a transfection reagent: Mirus TransIT 293 (by Takara Bio Inc.). After leaving it in the CO2 incubator for 24 hours, the cells were collected by DMEM containing 10% fetal bovine serum and seeded on poly-D-lysine coat 384 well plate (by Falcon) in 15,000 cells/well. After leaving them in the CO2 incubator for 24 hours, the medium was removed. Then, 50 μL/well of Ca^2+ fluorescent indicator: Calcium 4 Assay Kit (by Molecular Devices) that was dissolved in an assay buffer (146 mM NaCl, 5 mM KCl, 1 mM MgSO4, 1 mg/mL Glucose, 20 mM HEPES (pH 7.2), 1.5 mM CaCl2) was added thereto, and left at 37° C. for 1 hour and at room temperature for 30 minutes to absorb the fluorescent indicator. The 384 well plate was transferred to FLIPR (by Molecular Devices). Then, 12.5 μL/well of a compound that was dissolved in a 0.1% BSA containing assay buffer was added thereto, and change in fluorescence intensity was measured for 3 minutes. Meanwhile, Compound No. 20 was purchased from Bachem.
The difference between the maximum value and the minimum value (RFU(Max−Min)) of the fluorescence intensity before and after adding a compound was automatically calculated by FLIPR. RFU(Max−Min) when adding a compound in maximum concentration was defined as 100%; and RFU(Max−Min) when adding DMSO instead of the compound in the same concentration as that of the compound was defined as 0%.

SMILES	EC50 [µM]
COc1ccc(S(=O)(=O)O)cc1NC(=O)CC[C@H](N)C(=O)O [Compound No. 3, N^5-(2-methoxy-5-sulfophenyl)-L-glutamine]	0.56
Cc1cc(C)c(S(=O)(=O)O)cc1NC(=O)CC[C@H](N)C(=O)O [Compound No. 4, N^5-(2,4-dimethyl-5-sulfophenyl)-L-glutamine]	0.059
N[C@@H](CCC(=O)Nc1cc(S(=O)(=O)O)cc([N+](=O)[O-])c1O)C(=O)O [Compound No. 6, N^5-(2-hydroxy-3-nitro-5-sulfophenyl)-L-glutamine]	2.7
N[C@@H](CCC(=O)Nc1cc(S(=O)(=O)O)ccc1O)C(=O)O [Compound No. 8, N^5-(2-hydroxy-5-sulfophenyl)-L-glutamine]	0.1
N[C@@H](CCC(=O)Nc1cccc(S(=O)(=O)O)c1O)C(=O)O [Compound No. 10, N^5-(2-hydroxy-3-sulfophenyl)-L-glutamine]	0.017
N[C@@H](CCC(=O)Nc1ccc(O)c(S(=O)(=O)O)c1)C(=O)O [Compound No. 11, N^5-(4-hydroxy-3-sulfophenyl)-L-glutamine]	0.086
CN(C(=O)CC[C@H](N)C(=O)O)c1cccc(S(=O)(=O)O)c1 [Compound No. 12, N^5-methyl-N^5-(3-sulfophenyl)-L-glutamine]	0.2
N[C@@H](COC(=O)Nc1cccc(S(=O)(=O)O)c1)C(=O)O [Compound No. 13, O-{[(3-sulfophenyl)amino]carbonyl}-L-serine]	0.072
N[C@@H](CCC(=O)Nc1cccc(C(=O)O)c1)C(=O)O [Compound No. 14, 3-(L-γ-glutamylamino)benzoic acid]	2
COP(=O)(O)c1cccc(NC(=O)CC[C@H](N)C(=O)O)c1 [Compound No. 17, N^5-{3-[hydroxyl(methoxy)phosphoryl]phenyl}-L-glutamine]	2
N[C@@H](CCC(=O)Nc1cccc(P(=O)(O)O)c1)C(=O)O [Compound No. 18, N^5-(3-phosphonophenyl)-L-glutamine]	0.53
N[C@@H](CCC(=O)Nc1ccccc1)C(=O)O [Compound No. 20, N-γ-glutamyl-aniline]	0.94
Cc1c(Cl)cc(NC(=O)CC[C@H](N)C(=O)O)cc1S(=O)(=O)O [Compound No. 21, N^5-(3-chloro-4-methyl-5-sulfophenyl)-L-glutamine]	0.0057
N[C@@H](CCC(=O)Nc1cc([N+](=O)[O-])cc(S(=O)(=O)O)c1O)C(=O)O [Compound No. 23, N^5-(2-hydroxy-5-nitro-3-sulfophenyl)-L-glutamine]	0.89
N[C@@H](CCC(=O)Nc1cccc(C(=O)O)c1Cl)C(=O)O [Compound No. 25, 2-chloro-3-(L-γ-glutamylamino)benzoic acid]	0.97
N[C@@H](CCC(=O)Nc1cc(C(=O)O)ccc1Cl)C(=O)O [Compound No. 26, 4-chloro-3-(L-γ-glutamylamino)benzoic acid]	0.16
COc1c(NC(=O)CC[C@H](N)C(=O)O)cccc1C(=O)O [Compound No. 27, 2-methoxy-3-(L-γ-glutamylamino)benzoic acid]	0.15
N[C@@H](CCC(=O)Nc1ccc(O)c(C(=O)O)c1)C(=O)O [Compound No. 28, 6-hydroxy-3-(L-γ-glutamylamino)benzoic acid]	0.33
N[C@@H](CCC(=O)Nc1cc(O)cc(C(=O)O)c1)C(=O)O [Compound No. 30, 5-hydroxy-3-(L-γ-glutamylamino)benzoic acid]	2.9
N[C@@H](CCC(=O)Nc1cc(Cl)cc(C(=O)O)c1)C(=O)O [Compound No. 32, 5-chloro-3-(L-γ-glutamylamino)benzoic acid]	0.0088
N[C@@H](COC(=O)Nc1cc(Cl)cc(S(=O)(=O)O)c1O)C(=O)O [Compound No. 34, sodium 3-{[(2S)-2-amino-2-carboxyethoxycarbonyl]amino}-5-chloro-2-hydroxybenzenesulfonate]	0.0019
N[C@@H](CCC(=O)Nc1cc(S(=O)(=O)O)ccc1Cl)C(=O)O [Compound No. 37, N^5-(2-chloro-5-sulfophenyl)-L-glutamine]	0.0029
N[C@@H](CCC(=O)Nc1ccc(S(=O)(=O)O)c(I)c1)C(=O)O [Compound No. 40, N^5-(3-iodo-4-sulfophenyl)-L-glutamine]	7.9
N[C@@H](CCC(=O)Nc1cc(I)ccc1S(=O)(=O)O)C(=O)O [Compound No. 41, N^5-(5-iodo-2-sulfophenyl)-L-glutamine]	2.3

Continued by falling EC50, values first:

EC50 [µM]	SMILES
6.7	N[C@@H](CCC(=O)Nc1ccc(S(=O)(=O)O)c(Cl)c1)C(=O)O [Compound No. 38, N^5-(3-chloro-4-sulfophenyl)-L-glutamine]
3.7	Cc1c(NC(=O)CC[C@H](N)C(=O)O)cccc1C(=O)O [Compound No. 31, 3-(L-γ-glutamylamino)-2-methyl-benzoic acid]
3.5	COc1c(NC(=O)OC[C@H](N)C(=O)O)cc(Cl)cc1S(=O)(=O)O [Compound No. 36, O-{[(5-chloro-2-methoxy-3-sulfophenyl)amino]carbonyl}-L-serine]
2.3	COc1ccc(NC(=O)CC[C@H](N)C(=O)O)cc1S(=O)(=O)O [Compound No. 2, N^5-(4-methoxy-3-sulfophenyl)-L-glutamine]
0.53	Cc1ccc(C(=O)O)cc1NC(=O)CC[C@H](N)C(=O)O [Compound No. 29, 4-methyl-3-(L-γ-glutamylamino)benzoic acid]
0.4	N[C@@H](CCC(=O)Nc1cccc([N+](=O)[O-])c1)C(=O)O [Compound No. 19, N^5-(3-nitrophenyl)-L-glutamine]
0.27	N[C@@H](CCC(=O)Nc1ccc(Cl)c(S(=O)(=O)O)c1)C(=O)O [Compound No. 9, N^5-(4-chloro-3-sulfophenyl)-L-glutamine]
0.13	Cc1ccc(NC(=O)CC[C@H](N)C(=O)O)cc1S(=O)(=O)O [Compound No. 5, N^5-(4-methyl-3-sulfophenyl)-L-glutamine]
0.048	N[C@@H](CCC(=O)Nc1cc(Br)cc(C(=O)O)c1)C(=O)O [Compound No. 16, 3-bromo-5-(L-γ-glutamylamino)benzoic acid]
0.034	N[C@@H](CCC(=O)Nc1cccc(C(=O)O)c1O)C(=O)O [Compound No. 15, 3-(L-γ-glutamylamino)-2-hydroxybenzoic acid]
0.022	N[C@@H](CCC(=O)Nc1cc(Cl)cc(C(=O)O)c1Cl)C(=O)O [Compound No. 24, 2,5-dichloro-3-(L-γ-glutamylamino)benzoic acid]
0.0037	Cc1c(Cl)cc(S(=O)(=O)O)cc1NC(=O)OC[C@H](N)C(=O)O [Compound No. 35, O-{[(3-chloro-2-methyl-5-sulfophenyl)amino]carbonyl}-L-serine]
0.0021	Cc1c(Cl)cc(NC(=O)OC[C@H](N)C(=O)O)cc1S(=O)(=O)O [Compound No. 33, O-{[(3-chloro-4-methyll-5-sulfophenyl)amino]carbonyl}-L-serine]
0.0014	Cc1c(Cl)cc(S(=O)(=O)O)cc1NC(=O)CC[C@H](N)C(=O)O [Compound No. 22, N^5-(3-chloro-2-methyl-5-sulfophenyl)-L-glutamine]
